From patent publication US20230085307A1, “PYRIDAZINONE COMPOUND AND HERBICIDE” (NISSAN CHEMICAL CORPORATION, priority 2019, published 2023)

Tests used:
[1] = system: blackgrass; test: Test Example 5: herbicidal effect by foliage application, plastic box (Table 20, symbol J); format: in vivo, blackgrass (Alopecurus myosuroides); details: foliage application
Method in brief: (§1)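 Sow seeds spot-wise in sterilized diluvial soil; cover with ~1.5 cm soil. Grow 14 days in greenhouse, 25° C. to 30° C. Spray foliage with emulsion diluted to predetermined amount. Rate effect after 3 weeks.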

[2] = system: lambsquarters; test: Test Example 4: herbicidal effect by soil treatment (Table 19, symbol O); format: in vivo, lambsquarters (Chenopodium album)
Method in brief: (§2)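 Applied as a water-diluted emulsion, the compound was sprayed onto soil covering newly sown seeds. Evaluation came three weeks after application, in a greenhouse held at 25° C. to 30° C.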

[3] = system: green foxtail; test: Test Example 5: herbicidal effect by foliage application, plastic box (Table 20, symbol G); format: in vivo, green foxtail (Setaria viridis); details: foliage application
Method in brief: as §1

[4] = system: rice flat sedge; test: Test Example 3: herbicidal effect by foliage application, Wagner pot (Table 18, symbol E); format: in vivo, rice flat sedge (Cyperus iria); details: for herbicidal effect on E: rice flat sedge: amount of applied herbicide 320 g/ha; for herbicidal effect on E (rice flat sedge), rating 0-5: 320 g/ha
Method in brief: (§3)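 Plants were sown in alluvial soil held under 0.1–0.5 cm standing water and grown 14 days in a greenhouse at 25–30 °C. An emulsifiable formulation, water-diluted to the set dose, was then sprayed onto the foliage, and effects were scored three weeks later using previously defined criteria.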

[5] = system: chickweed; test: Test Example 4: herbicidal effect by soil treatment (Table 19, symbol P); format: in vivo, common chickweed (Stellaria media)
Method in brief: as §2

[6] = system: velvetleaf; test: Test Example 5: herbicidal effect by foliage application, plastic box (Table 20, symbol M); format: in vivo, velvetleaf (Abutilon theophrasti); details: foliage application
Method in brief: as §1

[7] = system: late watergrass; test: Test Example 1: herbicidal activity, application before weed generation under submerged conditions (Table 16, symbol A); format: in vivo, late watergrass (Echinochloa oryzicola); details: 320 g/ha applied herbicide
Method in brief: (§4)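 Alluvial soil was flooded to 4 cm depth, weed seeds were sown mixed and 2.5-leaf rice seedlings were transplanted. On sowing day, the compound's emulsion, diluted in water to a set dose, was applied to the water surface. Plants grew at 25–30 °C and were scored 0–5 after three weeks.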

[8] = system: southern crabgrass; test: Test Example 5: herbicidal effect by foliage application, plastic box (Table 20, symbol F); format: in vivo, southern crabgrass (Digitaria ciliaris); details: foliage application
Method in brief: as §1

[9] = system: Chinese sprangletop; test: Test Example 3: herbicidal effect by foliage application, Wagner pot (Table 18, symbol D); format: in vivo, chinese sprangletop (Leptochloa chinensis); details: for herbicidal effect on D: Chinese sprangletop: amount of applied herbicide 320 g/ha; for herbicidal effect on D (Chinese sprangletop), rating 0-5: 320 g/ha
Method in brief: as §3

[10] = system: Italian ryegrass; test: Test Example 5: herbicidal effect by foliage application, plastic box (Table 20, symbol K); format: in vivo, Italian ryegrass (Lolium multiflorum); details: foliage application
Method in brief: as §1

[11] = system: Japanese bulrush; test: Test Example 1: herbicidal activity, application before weed generation under submerged conditions (Table 16, symbol B); format: in vivo, Japanese bulrush (Schoenoplectus juncoides); details: 320 g/ha applied herbicide
Method in brief: as §4

[12] = system: Italian ryegrass; test: Test Example 4: herbicidal effect by soil treatment (Table 19, symbol K); format: in vivo, Italian ryegrass (Lolium multiflorum)
Method in brief: as §2

[13] = system: windgrass; test: Test Example 4: herbicidal effect by soil treatment (Table 19, symbol L); format: in vivo, windgrass (Apera spica-venti)
Method in brief: as §2

[14] = system: barnyard grass; test: Test Example 3: herbicidal effect by foliage application, Wagner pot (Table 18, symbol H); format: in vivo, barnyard grass (Echinochloa crus-galli); details: for herbicidal effect on H: barnyard grass: amount of applied herbicide 320 g/ha; for herbicidal effect on H (barnyard grass), rating 0-5: 320 g/ha
Method in brief: as §3

[15] = system: lambsquarters; test: Test Example 5: herbicidal effect by foliage application, plastic box (Table 20, symbol O); format: in vivo, lambsquarters (Chenopodium album); details: foliage application
Method in brief: as §1

[16] = system: oval-leafed pondweed; test: Test Example 1: herbicidal activity, application before weed generation under submerged conditions (Table 16, symbol C); format: in vivo, oval-leafed pondweed (Monochoria vaginalis); details: 320 g/ha applied herbicide
Method in brief: as §4

[17] = system: wild oat; test: Test Example 5: herbicidal effect by foliage application, plastic box (Table 20, symbol I); format: in vivo, wild oat (Avena fatua); details: foliage application
Method in brief: as §1

[18] = 320 g/ha, evaluated three weeks after application
[19] = amount of applied herbicide 320 g/ha
[20] = 320 g/ha, 3 weeks after application
[21] = AAH 320 g/ha, evaluated three weeks after application
[22] = 320 g/ha, three weeks after application

CCCC(=O)Oc1c(C)nn(C)c(=O)c1-c1c(-c2cccc(F)c2)sc2ccc(F)cc12 [2-202]
herbicidal effect on J: blackgrass (criteria 0-5) [1, 18]: 1 (Herbicidal rate of 5% or more and less than 20%) | O: lambsquarters, herbicidal effect rating [2, 19]: 5 (Herbicidal rate of 90% or more (almost completely withered)) | herbicidal effect on G: green foxtail (criteria 0-5) [3, 18]: 4 (Herbicidal rate of 70% or more and less than 90%) | herbicidal effect on E: rice flat sedge [4]: 5 (Herbicidal rate of 90% or more (almost completely withered)) | P: chickweed, herbicidal effect rating [5, 19]: 4 (Herbicidal rate of 70% or more and less than 90%) | herbicidal effect on M: velvetleaf (criteria 0-5) [6, 18]: 5 (Herbicidal rate of 90% or more (almost completely withered)) | Herbicidal effect on A: late watergrass (grade 0-5) [7]: 3 (Herbicidal rate of 40% or more and less than 70%) | herbicidal effect on F: southern crabgrass (criteria 0-5) [8, 18]: 3 (Herbicidal rate of 40% or more and less than 70%) | herbicidal effect on D: Chinese sprangletop [9]: 5 (Herbicidal rate of 90% or more (almost completely withered)) | herbicidal effect on K: Italian ryegrass (criteria 0-5) [10, 18]: 3 (Herbicidal rate of 40% or more and less than 70%) | Herbicidal effect on B: Japanese bulrush (grade 0-5) [11]: 0 (Herbicidal rate of 5% or less (almost no effect)) | K: Italian ryegrass, herbicidal effect rating [12, 19]: 1 (Herbicidal rate of 5% or more and less than 20%) | L: windgrass, herbicidal effect rating [13, 19]: 0 (Herbicidal rate of 5% or less (almost no effect)) | herbicidal effect on H: barnyard grass [14]: 5 (Herbicidal rate of 90% or more (almost completely withered)) | herbicidal effect on O: lambsquarters (criteria 0-5) [15, 18]: 4 (Herbicidal rate of 70% or more and less than 90%) | Herbicidal effect on C: oval-leafed pondweed (grade 0-5) [16]: 0 (Herbicidal rate of 5% or less (almost no effect)) | herbicidal effect on I: wild oat (criteria 0-5) [17, 18]: 1 (Herbicidal rate of 5% or more and less than 20%)

CCCOc1ccc(-c2sc3ccc(F)cc3c2-c2c(OC(=O)CCC)c(C)nn(C)c2=O)cc1 [2-033]
effect on blackgrass (J) [1, 20]: 3 (Herbicidal rate of 40% or more and less than 70%) | herbicidal effect rating, O: lambsquarters ([2]; 320 g/ha): 5 (Herbicidal rate of 90% or more (almost completely withered)) | effect on green foxtail (G) [3, 20]: 5 (Herbicidal rate of 90% or more (almost completely withered)) | herbicidal effect on E (rice flat sedge), rating 0-5 [4]: 5 (Herbicidal rate of 90% or more (almost completely withered)) | herbicidal effect rating, P: chickweed ([5]; 320 g/ha): 4 (Herbicidal rate of 70% or more and less than 90%) | effect on velvetleaf (M) [6, 20]: 5 (Herbicidal rate of 90% or more (almost completely withered)) | Herbicidal effect on A: late watergrass (grade 0-5) [7]: 4 (Herbicidal rate of 70% or more and less than 90%) | effect on southern crabgrass (F) [8, 20]: 2 (Herbicidal rate of 20% or more and less than 40%) | herbicidal effect on D (Chinese sprangletop), rating 0-5 [9]: 1 (Herbicidal rate of 5% or more and less than 20%) | effect on Italian ryegrass (K) [10, 20]: 2 (Herbicidal rate of 20% or more and less than 40%) | Herbicidal effect on B: Japanese bulrush (grade 0-5) [11]: 5 (Herbicidal rate of 90% or more (almost completely withered)) | herbicidal effect rating, K: Italian ryegrass ([12]; 320 g/ha): 0 (Herbicidal rate of 5% or less (almost no effect)) | herbicidal effect rating, L: windgrass ([13]; 320 g/ha): 0 (Herbicidal rate of 5% or less (almost no effect)) | herbicidal effect on H (barnyard grass), rating 0-5 [14]: 5 (Herbicidal rate of 90% or more (almost completely withered)) | effect on lambsquarters (O) [15, 20]: 5 (Herbicidal rate of 90% or more (almost completely withered)) | Herbicidal effect on C: oval-leafed pondweed (grade 0-5) [16]: 4 (Herbicidal rate of 70% or more and less than 90%) | effect on wild oat (I) [17, 20]: 0 (Herbicidal rate of 5% or less (almost no effect))

CCCC(=O)Oc1c(C)nn(C)c(=O)c1-c1c(-c2ccc(F)c(F)c2)sc2ccc(F)cc12 [2-345]
J: blackgrass, herbicidal effect (criteria 0-5) [1, 21]: 0 (Herbicidal rate of 5% or less (almost no effect)) | herbicidal effect on O: lambsquarters [2, 19]: 4 (Herbicidal rate of 70% or more and less than 90%) | G: green foxtail, herbicidal effect (criteria 0-5) [3, 21]: 5 (Herbicidal rate of 90% or more (almost completely withered)) | herbicidal effect on E: rice flat sedge [4]: 5 (Herbicidal rate of 90% or more (almost completely withered)) | herbicidal effect on P: chickweed [5, 19]: 3 (Herbicidal rate of 40% or more and less than 70%) | M: velvetleaf, herbicidal effect (criteria 0-5) [6, 21]: 5 (Herbicidal rate of 90% or more (almost completely withered)) | Herbicidal effect on A: late watergrass (grade 0-5) [7]: 4 (Herbicidal rate of 70% or more and less than 90%) | F: southern crabgrass, herbicidal effect (criteria 0-5) [8, 21]: 4 (Herbicidal rate of 70% or more and less than 90%) | herbicidal effect on D: Chinese sprangletop [9]: 5 (Herbicidal rate of 90% or more (almost completely withered)) | K: Italian ryegrass, herbicidal effect (criteria 0-5) [10, 21]: 3 (Herbicidal rate of 40% or more and less than 70%) | Herbicidal effect on B: Japanese bulrush (grade 0-5) [11]: 4 (Herbicidal rate of 70% or more and less than 90%) | herbicidal effect on K: Italian ryegrass [12, 19]: 0 (Herbicidal rate of 5% or less (almost no effect)) | herbicidal effect on L: windgrass [13, 19]: 0 (Herbicidal rate of 5% or less (almost no effect)) | herbicidal effect on H: barnyard grass [14]: 5 (Herbicidal rate of 90% or more (almost completely withered)) | O: lambsquarters, herbicidal effect (criteria 0-5) [15, 21]: 5 (Herbicidal rate of 90% or more (almost completely withered)) | Herbicidal effect on C: oval-leafed pondweed (grade 0-5) [16]: 3 (Herbicidal rate of 40% or more and less than 70%) | I: wild oat, herbicidal effect (criteria 0-5) [17, 21]: 3 (Herbicidal rate of 40% or more and less than 70%)

CCCC(=O)Oc1c(C)nn(C)c(=O)c1-c1c(-c2ccc(OC(C)C)cc2)sc2ccccc12 [1-021]
herbicidal effect grade, J: blackgrass [1, 22]: 1 (Herbicidal rate of 5% or more and less than 20%) | herbicidal effect rating, O: lambsquarters [2, 19]: 0 (Herbicidal rate of 5% or less (almost no effect)) | herbicidal effect grade, G: green foxtail [3, 22]: 4 (Herbicidal rate of 70% or more and less than 90%) | herbicidal effect on E (rice flat sedge), rating 0-5 [4]: 5 (Herbicidal rate of 90% or more (almost completely withered)) | herbicidal effect rating, P: chickweed [5, 19]: 5 (Herbicidal rate of 90% or more (almost completely withered)) | herbicidal effect grade, M: velvetleaf [6, 22]: 3 (Herbicidal rate of 40% or more and less than 70%) | Herbicidal effect on A: late watergrass (grade 0-5) [7]: 4 (Herbicidal rate of 70% or more and less than 90%) | herbicidal effect grade, F: southern crabgrass [8, 22]: 3 (Herbicidal rate of 40% or more and less than 70%) | herbicidal effect on D (Chinese sprangletop), rating 0-5 [9]: 1 (Herbicidal rate of 5% or more and less than 20%) | herbicidal effect grade, K: Italian ryegrass [10, 22]: 3 (Herbicidal rate of 40% or more and less than 70%) | Herbicidal effect on B: Japanese bulrush (grade 0-5) [11]: 5 (Herbicidal rate of 90% or more (almost completely withered)) | herbicidal effect rating, K: Italian ryegrass [12, 19]: 1 (Herbicidal rate of 5% or more and less than 20%) | herbicidal effect rating, L: windgrass [13, 19]: 0 (Herbicidal rate of 5% or less (almost no effect)) | herbicidal effect on H (barnyard grass), rating 0-5 [14]: 5 (Herbicidal rate of 90% or more (almost completely withered)) | herbicidal effect grade, O: lambsquarters [15, 22]: 1 (Herbicidal rate of 5% or more and less than 20%) | Herbicidal effect on C: oval-leafed pondweed (grade 0-5) [16]: 4 (Herbicidal rate of 70% or more and less than 90%) | herbicidal effect grade, I: wild oat [17, 22]: 0 (Herbicidal rate of 5% or less (almost no effect))
